Read-outs that look alike come from different tables or passages of the source.
Assays:
[1] = Clinical Study 1: plasma/serum AZT by radioimmunoassay, AZT alone then AZT + inosiplex; format: in vivo, AIDS patients; settings: for Cmax: plasma, mean peak plasma level of AZT; for concentration: read-out: mean nadir level of AZT
Protocol: (§1) The patients were then placed on the following dosing regimen:
(§2) No other drugs that are believed to affect hepatic glucuronidation were administered.

[2] = Clinical Study No. 2: plasma/serum AZT by radioimmunoassay, AZT alone then AZT + p-acetamidobenzoic acid; format: in vivo, AIDS patients; settings: for Cmax: human, plasma, po, 100 mg, mean peak plasma level of AZT; for concentration: read-out: mean nadir level of AZT
Protocol: as §1, §2

[3] = Clinical Study 3: plasma/serum AZT by radioimmunoassay, AZT alone then AZT + inosine + INPX; format: in vivo, AIDS patients; settings: for Cmax: human, plasma, po, 100 mg, mean peak plasma level of AZT; for concentration: read-out: mean nadir level of AZT
Protocol: as §1, §2

bone marrow = test: Bone marrow toxicity of AZT in the study patients before the study; format: in vivo, AIDS patients; settings: 200 mg AZT orally every four hours (1,200 mg daily), and again on 800 mg daily for 2 months; 5 patients
[4] = Pharmacokinetics studies of AZT 100 mg every 6 hours before the study; format: in vivo, AIDS patients; settings: 100 mg AZT every 6 hours (400 mg total daily dose)
[5] = cited from earlier work
[6] = system: HIV (Human Immunodeficiency Virus); settings: cited from earlier work
HIV = settings: cited from earlier work
[7] = system: RNA-dependent DNA-polymerase (viral reverse transcriptase); settings: in vitro incorporation into DNA growing chains, DNA chain terminated; cited from earlier work
[8] = with zidovudine, GB 2 181 128 A

Cc1cn([C@H]2C[C@H](N=[N+]=[N-])[C@@H](CO)O2)c(=O)[nH]c1=O [AZT, 3'-azido-3'-deoxythymidine]
AZT serum level at time 0 ([1]; before the taking of AZT alone or of AZT and INPX): 0.013 µM
Cmax ([1]; human, po, 100 mg, 100 mg AZT with 1 gm INPX every 6 hrs, day 14, standard deviation 1.5 μM, range 0.14 to 4.4 μM): 2250 nM
Cmax ([1]; human, po, 100 mg, AZT alone 100 mg oral every 6 hours, day 7, standard deviation 0.75 μM, range 0.06 to 2.52 μM): 1470 nM
half-life ([1]; human, serum, po, 100 mg, read-out: Serum half-life of the elimination phase (T1/2)): 44 min
concentration ([1]; 100 mg AZT with 1 gm INPX every 6 hrs, day 14, standard deviation 0.25 μM, range 0.15 to 0.84 μM): 460 nM
concentration ([1]; AZT alone 100 mg oral every 6 hours, day 7, standard deviation 0.19 μM, range 0.06 to 0.5 μM): 240 nM
serum level at time 0 ([2]; before the taking of AZT alone or of AZT and p-acetamidobenzoic acid): 10 nM
Cmax ([2]; 100 mg AZT with 1 gm p-acetamidobenzoic acid every 6 hrs, day 14, standard deviation 1.8 μM, range 0.16 to 4.7 μM): 2450 nM
Cmax ([2]; AZT alone 100 mg oral every 6 hours, day 7, standard deviation 0.75 μM, range 0.04 to 2.46 μM): 1520 nM
concentration ([2]; 100 mg AZT with 1 gm p-acetamidobenzoic acid every 6 hrs, day 14, standard deviation 0.28 μM, range 0.14 to 0.88 μM): 490 nM
concentration ([2]; AZT alone 100 mg oral every 6 hours, day 7, standard deviation 0.19 μM, range 0.04 to 0.6 μM): 250 nM
AZT serum level at time 0 ([3]; before the taking of AZT alone or of AZT, inosine and INPX): 0.016 µM
Cmax ([3]; 100 mg AZT with 1 gm inosine and 1 gm INPX every 6 hrs, day 14, standard deviation 1.3 μM, range 0.15 to 4.2 μM): 2760 nM
Cmax ([3]; AZT alone 100 mg oral every 6 hours, day 7, standard deviation 0.70 μM, range 0.03 to 2.16 μM): 1410 nM
concentration ([3]; 100 mg AZT with 1 gm inosine and 1 gm INPX every 6 hrs, day 14, standard deviation 0.26 μM, range 0.11 to 0.82 μM): 510 nM
concentration ([3]; AZT alone 100 mg oral every 6 hours, day 7, standard deviation 0.16 μM, range 0.06 to 0.8 μM): 210 nM
bone marrow toxicity (bone marrow): developped bone marrow toxicity
plasma levels [4]: below the therapeutical threshold
half-life ([5]; average): about 1 hour
metabolic inactivation ([5]; liver): rapidly inactivated via glucuronidation in the liver
inhibition of in vitro replication of some retroviruses, including HIV [6]: inhibitor of the in vitro replication of some retroviruses, including HIV

Nc1nc2c(ncn2COCCO)c(=O)[nH]1 [acyclovir]
effect on zidovudine (HIV; [8]): synergistic effect

COc1cc(C(=O)OCCCN2CCCN(CCCOC(=O)c3cc(OC)c(OC)c(OC)c3)CC2)cc(OC)c1OC [dilazep]
effect on zidovudine (HIV; [8]): synergistic effect

OCCN(CCO)c1nc(N2CCCCC2)c2nc(N(CCO)CCO)nc(N3CCCCC3)c2n1 [dipyridamole]
effect on zidovudine (HIV; [8]): synergistic effect

O=C(O)P(=O)(O)O [foscarnet]
effect on zidovudine (HIV; [8]): synergistic effect

COc1cc(C(=O)OCCCN(C)CCN(C)CCCOC(=O)c2cc(OC)c(OC)c(OC)c2)cc(OC)c1OC [hexobendine]
effect on zidovudine (HIV; [8]): synergistic effect

c1ccc([C@H]2CN3CCSC3=N2)cc1 [levamisole]
effect on zidovudine (HIV): synergistic effect

Cc1cccc(C)c1NC(=O)CN1CCN(CCCC(c2ccc(F)cc2)c2ccc(F)cc2)CC1 [lidoflazine]
effect on zidovudine (HIV; [8]): synergistic effect

NC(=O)C1CN(CC(=O)Nc2c(Cl)cccc2Cl)CCN1CCCC(c1ccc(F)cc1)c1ccc(F)cc1 (centres unmarked) [mioflazine]
effect on zidovudine (HIV; [8]): synergistic effect

COc1ccc(Cc2nccc3cc(OC)c(OC)cc23)cc1OC [papaverine]
effect on zidovudine (HIV; [8]): synergistic effect

CCCN(CCC)S(=O)(=O)c1ccc(C(=O)O)cc1 [probenecid]
effect on zidovudine (HIV; [8]): synergistic effect

Cc1ccc(C(=O)Nc2ccc(S(=O)(=O)O)c3cc(S(=O)(=O)O)cc(S(=O)(=O)O)c23)cc1NC(=O)c1cccc(NC(=O)Nc2cccc(C(=O)Nc3cc(C(=O)Nc4ccc(S(=O)(=O)O)c5cc(S(=O)(=O)O)cc(S(=O)(=O)O)c45)ccc3C)c2)c1 [suramine]
effect on zidovudine (HIV; [8]): synergistic effect

Cc1cn([C@H]2C[C@H](N=[N+]=[N-])[C@@H](CO[P@](=O)(O)O[P@](=O)(O)OP(=O)(O)O)O2)c(=O)[nH]c1=O [zidovudine triphosphate]
effect on RNA-dependent DNA-polymerase (viral reverse transcriptase) [7]: incorporated into the DNA growing chains by viral reverse transcriptase, whereby DNA chain is terminated

alpha-interferon
effect on zidovudine (HIV; [8]): synergistic effect

gamma-interferon: alpha-, beta, and gamma-interferons
effect on zidovudine (HIV; [8]): synergistic effect

Source: patent US5108993A, “Pharmaceutical composition comprising zidovudine and inosiplex or components thereof for the treatment of aids-related syndromes” (priority 1988, dated 1992)
